Assay results reported in patent US5861405A, “S-substituted 1,3,7-trialkyl-xanthine derivatives” (priority 1994, dated 1999).
Values joined by “and” are separate entries in the source; they are usually repeats but may differ in a detail not shown here. Equal values may be shown once. Read-outs that look alike come from different tables or passages of the source.

Assays:
[1] = biological target: T1, rat A1 cortical receptors (Rattus norvegicus, UniProt P25099); experiment: Radioligand binding, [3H]N6-phenylisopropyladenosine ([3H]PIA), rat cortical A1 receptors; conditions: for Ki: vs [3H]PIA (1 nM), read-out: Ki (A1); for inhibition at 10 µM: at 10^-5
T1 construct: Rat cerebral cortical membranes and striatal membranes were prepared; from tissue; host or cells: rat cerebral cortex membranes
T1 sequence (P25099 1-326): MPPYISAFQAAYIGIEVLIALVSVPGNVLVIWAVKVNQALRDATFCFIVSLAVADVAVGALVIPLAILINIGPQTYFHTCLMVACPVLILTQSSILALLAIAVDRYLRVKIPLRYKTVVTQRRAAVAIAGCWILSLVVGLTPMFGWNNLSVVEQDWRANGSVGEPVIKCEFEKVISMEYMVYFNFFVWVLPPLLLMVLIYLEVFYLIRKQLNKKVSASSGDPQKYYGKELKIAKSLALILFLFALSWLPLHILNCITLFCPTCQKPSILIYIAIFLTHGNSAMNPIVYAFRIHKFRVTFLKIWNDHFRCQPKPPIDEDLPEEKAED

[2] = biological target: rat striatal A2a receptors (Rattus norvegicus, UniProt P30543); experiment: Radioligand binding, [3H]CGS 21680, rat striatal A2a receptors; set-up: Rat cerebral cortical membranes and striatal membranes were prepared; from tissue; host or cells: rat striatal membranes; conditions: for potency or selectivity in binding, in words: rat A1 and A2 binding; for A2-selectivity: rat brain binding, this study
[3] = Table III, vs [3H]CGS21680 (5 nM), read-out: Ki (A2)
[4] = Table I, vs [3H]CGS21680 (5 nM), rat striatal A2 receptors, read-out: Ki (A2a)
[5] = vs [3H]CGS 21680, read-out: Ki value / affinity at A2 receptors
[6] = 1.5 h, vs [3H]PIA, read-out: Percent displacement of specific binding (A1)

Chain of rat striatal A2a receptors (P30543 whole entry): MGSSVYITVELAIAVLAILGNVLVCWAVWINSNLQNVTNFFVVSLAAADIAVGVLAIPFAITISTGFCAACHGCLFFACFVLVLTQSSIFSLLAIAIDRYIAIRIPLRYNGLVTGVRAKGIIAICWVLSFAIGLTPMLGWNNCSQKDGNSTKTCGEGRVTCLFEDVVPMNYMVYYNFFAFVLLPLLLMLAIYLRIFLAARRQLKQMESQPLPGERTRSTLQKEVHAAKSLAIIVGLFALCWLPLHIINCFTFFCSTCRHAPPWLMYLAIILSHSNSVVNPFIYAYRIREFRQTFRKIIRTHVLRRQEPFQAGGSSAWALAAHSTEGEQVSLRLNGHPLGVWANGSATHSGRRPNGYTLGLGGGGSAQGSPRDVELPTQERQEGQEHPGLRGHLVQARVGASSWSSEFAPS

Row | SMILES | Ki ([1]; Table I, rat A1 receptors) [µM] | A1/A2a ratio ([2]; Table I, ratio of Ki values) | Ki [2, 4] [µM] | further results
1 | Cn1c(=O)c2c(nc(/C=C/C(=O)Nc3ccccc3)n2C)n(C)c1=O [C(O)NH-phenyl(Rβ = H)] | – | – | – | Ki ([1]; Table III): 50 µM; A1/A2 ratio ([2]; Table III): 19.8; Ki [2, 3]: 2.53 µM
2 | Cn1c(=O)c2c(nc(/C=C/C(=O)OC(C)(C)C)n2C)n(C)c1=O [C(O)OC(CH3)3 (Rβ = H), 8-(trans-2-tert-Butyloxycarbonylvinyl)-1,3,7-trimethylxanthine] | – | – | – | Ki ([1]; Table III): 18 µM; A1/A2 ratio ([2]; Table III): 31; Ki [2, 3]: 0.59 µM
3 | Cn1c(=O)c2c(nc(/C=C/C(=O)O)n2C)n(C)c1=O [C(O)OH(Rβ = H), 8-(trans-2-Carboxyvinyl)-1,3,7-trimethylxanthine] | – | – | – | Ki ([1]; Table III): > 100 µM; A1/A2 ratio ([2]; Table III): > 3; Ki [2, 3]: 30 µM
4 | Cn1c(=O)c2[nH]c(/C=C/c3ccccc3)nc2n(C)c1=O [Compound 15a] | 0.654 ± 0.17 | 2.3 | 0.291 ± 0.04 | potency or selectivity in binding, in words [2]: non-selective
5 | Cn1c(=O)c2c(nc(/C=C/c3ccccc3)n2C)n(C)c1=O [Compound 15b] | 3.89 | – | – | –
6 | Cn1c(=O)c2[nH]c(/C(F)=C/c3ccccc3)nc2n(C)c1=O [Compound 16] | 2.19 | 1.4 | 2.11 | –
7 | COc1ccccc1/C=C/c1nc2c([nH]1)c(=O)n(C)c(=O)n2C [Compound 17a, 1,3-Dimethyl-8-(2-methoxystyryl)xanthine] | 1.73 | 2.7 | 0.645 ± 0.144 | –
8 | COc1ccccc1/C=C/c1nc2c(c(=O)n(C)c(=O)n2C)n1C [Compound 17b, 1,3,7-Trimethyl-8-(2-methoxystyryl)xanthine] | 4.76 | 18 | 0.267 ± 0.084 | –
9 | Cn1c(=O)c2[nH]c(/C=C/c3cccc(O)c3)nc2n(C)c1=O [Compound 18] | 0.702 ± 0.04 | 2.4 | 0.303 ± 0.055 | potency or selectivity in binding, in words [2]: equipotent with the methoxy compound, 19b, at A2 -receptors and more potent at A1 -receptors
10 | COc1cccc(/C=C/c2nc3c([nH]2)c(=O)n(C)c(=O)n3C)c1 [Compound 19a] | 1.83 | 4.8 | 0.378 ± 0.155 | –
11 | COc1cccc(/C=C/c2nc3c(c(=O)n(C)c(=O)n3C)n2C)c1 [Compound 19b] | 5.43 | 64 | 0.0848 ± 0.024 | Ki [2, 5]: 0.085 µM
12 | Cn1c(=O)c2[nH]c(/C=C/c3cccc(C(F)(F)F)c3)nc2n(C)c1=O [Compound 20a, 1,3-Dimethyl-8-(3-trifluoromethylstyryl)xanthine] | 0.881 ± 0.251 | 2.6 | 0.343 ± 0.058 | –
13 | Cn1c(=O)c2c(nc(/C=C/c3cccc(C(F)(F)F)c3)n2C)n(C)c1=O [Compound 20b, 1,3,7-Trimethyl-8-(3-trifluoromethylstyryl)xanthine] | 3.33 | 25 | 0.134 ± 0.044 | –
14 | Cn1c(=O)c2[nH]c(/C=C/c3cccc([N+](=O)[O-])c3)nc2n(C)c1=O [Compound 21a, 1,3-Dimethyl-8-(3-nitrostyryl)xanthine] | 1.06 | 2.4 | 0.438 ± 0.106 | –
15 | Cn1c(=O)c2c(nc(/C=C/c3cccc([N+](=O)[O-])c3)n2C)n(C)c1=O [Compound 21b, 1,3,7-Trimethyl-8-(3-nitrostyryl)xanthine] | 2.14 | 11 | 0.195 ± 0.044 | –
16 | CC(=O)Nc1cccc(/C=C/c2nc3c(c(=O)n(C)c(=O)n3C)n2C)c1 [Compound 23, 1,3,7-Trimethyl-8-(3-acetylaminostyryl)xanthine] | 9.47 | 240 | 0.039 ± 0.021 | Ki [2, 5]: 0.039 µM and ≤ 0.05 µM
17 | Cn1c(=O)c2c(nc(/C=C/c3cccc(NC(=O)OC(C)(C)C)c3)n2C)n(C)c1=O [Compound 25, 1,3,7-Trimethyl-8-(3-tert-butyloxycarbonylaminostyryl)xanthine] | – | – | 0.784 ± 0.1 | –
18 | Cn1c(=O)c2c(nc(/C=C/c3cccc(N(C(=O)OC(C)(C)C)C(=O)OC(C)(C)C)c3)n2C)n(C)c1=O [Compound 26, 1,3,7-Trimethyl-8-[3-[di-(tert-butyloxycarbonyl)amino]styryl]xanthine] | 10.8 | 15 | 0.74 ± 0.077 | reduction of potency at A2-receptors ([2]; very bulky 3-position substituents): roughly 20 fold
19 | COc1ccc(/C=C/c2nc3c(c(=O)n(C)c(=O)n3C)n2C)cc1OC [Compound 32b, 1,3,7-Trimethyl-8-(3,4-dimethoxystyryl)xanthine] | 13.8 | – | 0.197 ± 0.033 | A1/A2a ratio ([2]; rat, brain membranes): 70
20 | COc1cc(/C=C/c2nc3c(c(=O)n(C)c(=O)n3C)n2C)cc(OC)c1O [Compound 35] | 8.7 | 19 | 0.45 ± 0.066 | potency or selectivity in binding, in words [2]: moderately selective
21 | COc1cc(/C=C/c2nc3c(c(=O)n(C)c(=O)n3C)n2CCc2ccccc2)cc(OC)c1OC [Compound 44f] | – | – | – | inhibition at 10 µM [1, 6]: 32 ± 9%
22 | COc1cccc2cc(-c3nc4c(c(=O)n(C)c(=O)n4C)n3C)oc12 [Compound 58b] | – | – | – | Ki ([2]; Table IV, vs [3H]CGS21680 (5 nM), read-out: Ki (A2)): 4.74 µM

Second part, led by results:

Row | Ki ([1]; Table I, rat A1 receptors) [µM] | A1/A2a ratio ([2]; Table I, ratio of Ki values) | Ki [2, 4] [µM] | SMILES | further results
23 | 0.288 ± 0.06 | 1.4 | 0.202 ± 0.079 | Cn1c(=O)c2[nH]c(/C=C/c3cccc(N)c3)nc2n(C)c1=O [Compound 22a, 1,3-Dimethyl-8-(3-aminostyryl)xanthine] | –
24 | 1.69 | 30 | 0.057 ± 0.003 | Cn1c(=O)c2c(nc(/C=C/c3cccc(N)c3)n2C)n(C)c1=O [Compound 22b, 1,3,7-Trimethyl-8-(3-aminostyryl)xanthine] | A2-selectivity [2]: 30 fold
25 | 2.72 | 5.3 | 0.516 ± 0.099 | Cn1c(=O)c2[nH]c(/C=C/c3cccc(F)c3)nc2n(C)c1=O [Compound 27a] | –
26 | 15.8 | 190 | 0.083 ± 0.018 | Cn1c(=O)c2c(nc(/C=C/c3cccc(F)c3)n2C)n(C)c1=O [Compound 27b] | A2-selectivity [2]: ≥ 200 fold
27 | 3.52 | 120 | 0.0292 ± 0.0031 | Cn1c(=O)c2c(nc(/C=C/c3cccc(Br)c3)n2C)n(C)c1=O [Compound 28b] | –
28 | 2.37 | 61 | 0.0386 ± 0.0125 | Cn1c(=O)c2c(nc(/C=C/c3cccc(I)c3)n2C)n(C)c1=O [Compound 28c] | –
29 | 2.99 | 46 | 0.0648 ± 0.0196 | Cn1c(=O)c2c(nc(/C=C/c3cccc([N+]#N)c3)n2C)n(C)c1=O [Compound 28d] | –
30 | 0.858 ± 0.32 | 1.8 | 0.472 ± 0.132 | COc1ccc(/C=C/c2nc3c([nH]2)c(=O)n(C)c(=O)n3C)cc1 [Compound 29a, 1,3-Dimethyl-8-(4-methoxystyryl)xanthine] | –
31 | 14.2 | 44 | 0.327 ± 0.075 | COc1ccc(/C=C/c2nc3c(c(=O)n(C)c(=O)n3C)n2C)cc1 [Compound 29b, 1,3,7-Trimethyl-8-(4-methoxystyryl)xanthine] | –
32 | 3.03 | 0.24 | 12.8 | CN(C)c1ccc(/C=C/c2nc3c([nH]2)c(=O)n(C)c(=O)n3C)cc1 [Compound 30a, 1,3-Dimethyl-8-(4-dimethylaminostyryl)xanthine] | –
33 | – | > 1 | 9.27 | CN(C)c1ccc(/C=C/c2nc3c(c(=O)n(C)c(=O)n3C)n2C)cc1 [Compound 30b] | inhibition at 30 µM ([1]; 1.5 h, at 3 × 10^-5, vs [3H]PIA, read-out: Percent displacement of specific binding (A1)): 5.6%; potency or selectivity in binding, in words [2]: displayed A2 -selectivity
34 | 1.6 | 2.7 | 0.6 ± 0.204 | COc1cccc(/C=C/c2nc3c([nH]2)c(=O)n(C)c(=O)n3C)c1OC [Compound 31a, 1,3-Dimethyl-8-(2,3-dimethoxystyryl)xanthine] | –
35 | 5.34 | – | 1.1 | COc1ccc(/C=C/c2nc3c([nH]2)c(=O)n(C)c(=O)n3C)cc1OC [Compound 32a, 1,3-Dimethyl-8-(3,4-dimethoxystyryl)xanthine] | A1/A2a ratio [2]: 48
36 | 3.04 | 25 | 0.12 ± 0.036 | COc1cc(/C=C/c2nc3c([nH]2)c(=O)n(C)c(=O)n3C)cc(OC)c1 [Compound 33a, 1,3-Dimethyl-8-(3,5-dimethoxystyryl)xanthine] | –
37 | – | > 200 | 0.0753 ± 0.0291 | COc1cc(/C=C/c2nc3c(c(=O)n(C)c(=O)n3C)n2C)cc(OC)c1 [Compound 33b, 1,3,7-Trimethyl-8-(3,5-dimethoxystyryl)xanthine] | inhibition at 10 µM [1, 6]: 12.5 ± 6.3%
38 | 2.33 | 6.4 | 0.366 ± 0.077 | Cn1c(=O)c2[nH]c(/C=C/c3cc(F)cc(F)c3)nc2n(C)c1=O [Compound 34a] | –
39 | 14.8 | 230 | 0.065 ± 0.009 | Cn1c(=O)c2c(nc(/C=C/c3cc(F)cc(F)c3)n2C)n(C)c1=O [Compound 34b] | –
40 | 2.79 | – | – | CCn1c(=O)c2c(nc(/C=C/c3cc(OC)c(OC)c(OC)c3)n2C)n(CC)c1=O [Compound 45b] | –
41 | 0.874 ± 0.222 | – | – | CCCn1c(=O)c2c(nc(/C=C/c3cccc(Cl)c3)n2C)n(CCC)c1=O [Compound 51b] | –
